Laboratory results reported in patent US20250042886A1, “BIS(HETERO)ARYL THIOETHER OXADIAZINES AS FUNGICIDAL COMPOUNDS” (Bayer Aktiengesellschaft, priority 2021, published 2025).

Legend:
[1] = Measurement of Log P values by HPLC on reversed phase columns (EEC directive 79/831 Annex V.A8); format: physicochemical; conditions: Table 1, compounds of formula (I); method [a]: LC-UV, acidic range, 0.1% formic acid in water and acetonitrile
[2] = system: Botrytis cinerea; test: In vivo preventive test on Botrytis cinerea (grey mould); conditions: 500 ppm of active ingredient, sprayed on young gherkin or cabbage plants 24 h before inoculation, evaluated 4 to 5 days after inoculation, read-out: efficacy
Outline: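 Compounds in DMSO/acetone/Tween 80 were diluted in water and sprayed onto young gherkin or cabbage plants; controls got solvent only. After 24 h, leaves were sprayed with an aqueous Botrytis cinerea spore suspension.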

[3] = system: Colletotrichum lindemuthianum; test: In vivo preventive test on Colletotrichum lindemuthianum (leaf spot on bean); conditions: 168 h, 500 ppm of active ingredient, sprayed on young bean plants 24 h before inoculation, evaluated 7 days after inoculation, read-out: efficacy
Outline: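 Young bean plants sprayed preventively with compound in DMSO/acetone/Tween 80 diluted in water; controls got solvent mix only. After 24 hours, leaves sprayed with an aqueous spore suspension of C. lindemuthianum.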

[4] = system: Colletotrichum lindemuthianum; test: Colletotrichum lindemuthianum in vitro cell test; format: cell-based; conditions: 144 h, liquid culture, 6 days incubation, read-out: efficacy (inhibition of fungal growth); for inhibition at 20 ppm: 20 ppm of active ingredient
Outline: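 C. lindemuthianum spores in liquid glucose–peptone–yeast extract medium were exposed to compounds dissolved in DMSO. After 6 days, mycelial growth was measured by absorbance, and inhibition was calculated against compound-free control wells.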

[5] = system: Botrytis cinerea; test: Botrytis cinerea in vitro cell test; format: cell-based; conditions: 144 h, liquid culture, 6 days incubation, read-out: efficacy (inhibition of fungal growth); for inhibition at 20 ppm: 20 ppm of active ingredient
Outline: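 Compounds from DMSO stocks added at a range of concentrations to a defined mineral-salt/sucrose liquid medium inoculated with B. cinerea spores. After 6 days' incubation, mycelium growth was read by absorbance; inhibition of germination and growth was calculated against fungicide-free control wells.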

[6] = system: Fusarium culmorum; test: Fusarium culmorum in vitro cell test; format: cell-based; conditions: 120 h, liquid culture, 5 days incubation, read-out: efficacy (inhibition of fungal growth); for inhibition at 20 ppm: 20 ppm of active ingredient
Outline: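 Spores in liquid mineral-salts/saccharose medium exposed to compounds (DMSO ≤1% final) for 5 days. Mycelium growth measured spectrometrically, with inhibition derived from absorbance relative to fungicide-free control wells.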

[7] = system: Alternaria alternata; test: Alternaria alternata in vitro cell test; format: cell-based; conditions: 120 h, liquid culture, 5 days incubation, read-out: efficacy (inhibition of fungal growth); for inhibition at 20 ppm: 20 ppm of active ingredient
Outline: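 Spores in glucose/mycological peptone/yeast extract liquid medium were exposed to DMSO-dissolved fungicides for 5 days. Inhibition of germination and mycelial growth was read spectrophotometrically, comparing absorbance against fungicide-free control wells.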

| Compound | chromatographic logP [1] | pest or weed control at 500 ppm [2] [%] | pest or weed control at 500 ppm [3] [%] | inhibition at 20 ppm [4] [%] | inhibition at 20 ppm [5] [%] | inhibition at 20 ppm [6] [%] | inhibition at 20 ppm [7] [%] | inhibition at 50 µM ([7]; 50 μMol/l of active ingredient) [%] | inhibition at 50 µM ([4]; 50 μMol/l of active ingredient) [%] | inhibition at 50 µM ([5]; 50 μMol/l of active ingredient) [%] | inhibition at 50 µM ([6]; 50 μMol/l of active ingredient) [%] |
| --- | --- | --- | --- | --- | --- | --- | --- | --- | --- | --- | --- |
| FC(F)(F)c1cccc(Sc2cnc(Cl)cc2C2=NOC[C@@H](Cc3ccc(Cl)cc3Cl)N2)c1 (racemic) [Compound I-022] | 4.97 | 90 to 100 | 90 to 100 | 90 to 100 | 90 to 100 | 90 to 100 |  |  |  |  |  |
| Cc1cccc(Sc2cnc3ccccc3c2C2=NOC[C@H](Cc3ccc(C)cc3C)N2)c1 (racemic) [Compound I-023] | 4.37 | 90 to 100 | 70 to 79 | 90 to 100 | 90 to 100 | 90 to 100 | 90 to 100 |  |  |  |  |
| Cc1ccc(C[C@@H]2CON=C(c3c(Sc4cccc(C(F)(F)F)c4)nnc4ccccc34)N2)c(C)c1 (racemic) [Compound I-029] | 4.66 | 90 to 100 | 70 to 79 | 90 to 100 | 90 to 100 | 80 to 89 | 90 to 100 |  |  |  |  |
| Cc1ccc(C[C@H]2CON=C(c3c(Sc4cccc(C(F)(F)F)c4)cnc4ccccc34)N2)c(C)c1 (racemic) [Compound I-030] | 4.57 | 90 to 100 | 90 to 100 | 90 to 100 | 90 to 100 | 90 to 100 | 90 to 100 |  |  |  |  |
| Cc1ccc(C[C@@H]2CON=C(c3nc(C)ncc3Sc3cccc(Cl)c3)N2)c(C)c1 (racemic) [Compound I-031] | 5.16 | 90 to 100 | 90 to 100 | 90 to 100 | 90 to 100 | 90 to 100 | 70 to 79 |  |  |  |  |
| Cc1cccc(Sc2cnc(C)nc2C2=NOC[C@@H](Cc3ccc(C)cc3C)N2)c1 (racemic) [Compound I-032] | 5.09 | 90 to 100 | 90 to 100 | 90 to 100 | 90 to 100 | 80 to 89 | 70 to 79 |  |  |  |  |
| Cc1ccc(C[C@@H]2CON=C(c3nc(C)ncc3Sc3cccc(Cl)c3)N2)c(Cl)c1 (racemic) [Compound I-033] | 5.24 | 90 to 100 | 90 to 100 | 90 to 100 | 90 to 100 | 90 to 100 |  |  |  |  |  |
| Cc1cc([C@@H]2CON=C(c3c(Sc4cccc(Cl)c4)nnc(C)c3C)N2)c(C)s1 (racemic) [Compound I-100] | 3.49 | 90 to 100 | 90 to 100 |  |  |  |  | 90 to 100 | 90 to 100 | 90 to 100 | 90 to 100 |
